Earlier results as cited in patent US6774247B2, “Aqueous solution of ascorbic acid and method for producing same” (AquaNova German Solubilisate Technology (AGT) GmbH, priority 2001, dated 2004).

Details: aqueous ascorbic acid solution, after 30 days

In the case of `O=C1O[C@H]([C@@H](O)CO)C(O)=C1O` [ascorbic acid], the “added ascorbic acid still present” value is listed as “about 70%”.
